Test system: HL-60 cells
Assay: Growth of HL-60 cells (IC50)
Type: cell-based, human
Details: HL-60 cells; concentration giving 100% death

Row | Structure (SMILES) | 100% Death [% Death <2.5]
1 | COC(OC)[C@H]1CC[C@H]2N1[C@@H]1C=C(I)C3=CC(=O)O[C@@]32C1 [Compound 1] | 100

Same assay, conditions: Homo sapiens, HL-60, HL-60 cells; value bracketed between tested concentrations; read-out: HL-60, IC50

Row | Structure (SMILES) | IC50 [µM]
2 | CC(C)(C)c1ccc(C2=C[C@@H]3C[C@@]4(OC(=O)C=C24)[C@H]2CCCCN32)cc1 [Compound 5] | 20 to 30
3 | O=C1C=C2C(C#Cc3ccc(F)cc3)=C[C@@H]3C[C@@]2(O1)[C@H]1CCCCN31 [Compound 30] | 0.31 to 0.625
4 | CC(C)CC#CC1=C[C@@H]2C[C@@]3(OC(=O)C=C13)[C@H]1CCCCN21 [Compound 16] | 1.25 to 2.5
5 | O=C1C=C2C(C#CCC3CCCC3)=C[C@@H]3C[C@@]2(O1)[C@H]1CCCCN31 [Compound 24] | 1.25 to 2.5
6 | O=C1C=C2C(C#Cc3cc(F)cc(F)c3)=C[C@@H]3C[C@@]2(O1)[C@H]1CCCCN31 [Compound 37] | 5 to 10
7 | O=C1C=C2C(c3cc(C(F)(F)F)cc(C(F)(F)F)c3)=C[C@@H]3C[C@@]2(O1)[C@H]1CCCCN31 [Compound 6] | 15 to 20
8 | CC(C)(C)c1ccc(C#CC2=C[C@@H]3C[C@@]4(OC(=O)C=C24)[C@H]2CCCCN32)cc1 [Compound 32] | 1.25
9 | O=C1C=C2C(C#CC3CCCC3)=C[C@@H]3C[C@@]2(O1)[C@H]1CCCCN31 [Compound 19] | 0.31 to 0.625
10 | CCCCC1=C[C@@H]2C[C@@]3(OC(=O)C=C13)[C@H]1CCCCN21 [Compound 4] | 3 to 4
11 | O=C1C=C2C(C#Cc3ccc(-c4ccccc4)cc3)=C[C@@H]3C[C@@]2(O1)[C@H]1CCCCN31 [Compound 51] | < 0.07
12 | O=C1C=C2C(c3cc(Br)cc(Br)c3)=C[C@@H]3C[C@@]2(O1)[C@H]1CCCCN31 [Compound 7] | 15 to 20
13 | O=C1C=C2C(C#CCOc3ccccc3)=C[C@@H]3C[C@@]2(O1)[C@H]1CCCCN31 [Compound 33] | 0.625 to 1.25
14 | O=C1C=C2C(C#CCOCc3ccccc3)=C[C@@H]3C[C@@]2(O1)[C@H]1CCCCN31 [Compound 34] | 1.25 to 2.5
15 | CCOC(C#CC1=C[C@@H]2C[C@@]3(OC(=O)C=C13)[C@H]1CCCCN21)OCC [Compound 44] | 2.5 to 5
16 | Nc1ccc(C#CC2=C[C@@H]3C[C@@]4(OC(=O)C=C24)[C@H]2CCCCN32)cc1 [Compound 63] | 0.156
17 | O=C1C=C2C(C#Cc3cccs3)=C[C@@H]3C[C@@]2(O1)[C@H]1CCCCN31 [Compound 52] | 0.07 to 0.156
18 | CCCCc1ccc(C#CC2=C[C@@H]3C[C@@]4(OC(=O)C=C24)[C@H]2CCCCN32)cc1 [Compound 50] | 0.625 to 1.25
19 | C[N+]12CCCC[C@@H]1[C@]13C[C@H]2C=C(I)C1=CC(=O)O3 (stereo partly drawn) [Compound 9] | 5 to 7.5
20 | CCCCC#CC1=C[C@@H]2C[C@@]3(OC(=O)C=C13)[C@H]1CCCCN21 [Compound 20] | 2.5
21 | O=C1C=C2C(C#CC3CC3)=C[C@@H]3C[C@@]2(O1)[C@H]1CCCCN31 [Compound 25] | 1.25 to 2.5
22 | [N-]=[N+]=Nc1ccc(C#CC2=C[C@@H]3C[C@@]4(OC(=O)C=C24)[C@H]2CCCCN32)cc1 [Compound 54] | 0.31
23 | Cc1ccccc1C#CC1=C[C@@H]2C[C@@]3(OC(=O)C=C13)[C@H]1CCCCN21 [Compound 38] | 1.25 to 2.5
24 | CCc1ccc(C#CC2=C[C@@H]3C[C@@]4(OC(=O)C=C24)[C@H]2CCCCN32)cc1 [Compound 49] | 0.31 to 0.625
25 | CC(C)(C)OCC#CC1=C[C@@H]2C[C@@]3(OC(=O)C=C13)[C@H]1CCCCN21 [Compound 45] | 1.25 to 2.5
26 | CC(C)(C)C#CC1=C[C@@H]2C[C@@]3(OC(=O)C=C13)[C@H]1CCCCN21 [Compound 23] | 1.25 to 2.5

Same assay, conditions: Homo sapiens, HL-60, read-out: HL-60, IC50, HL-60 cells; value bracketed between tested concentrations

Row | Structure (SMILES) | IC50 [µM]
27 | CC(C)[Si](OCC#CC1=C[C@@H]2C[C@@]3(OC(=O)C=C13)[C@H]1CCCCN21)(C(C)C)C(C)C [Compound 27] | 0.625 to 1.25

Same assay, conditions: read-out: HL-60, IC50; HL-60 cells; value bracketed between tested concentrations

Row | Structure (SMILES) | IC50 [µM]
28 | O=C1C=C2C(I)=C[C@@H]3C[C@@]2(O1)[C@H]1CCCCN31 [Compound 13] | < 2.5

Test system: HL-60 leukemic cells
Assay: Nitroblue Tetrazolium (NBT) reduction assay, differentiation of HL-60 leukemic cells
Type: cell-based, human
Details: HL-60 cells; value bracketed between tested concentrations; read-out: HL-60, Dif50
Source text: In an aspect of the present disclosure, the compounds of the disclosure can be identified using a novel high-throughput screen that is biased to identify agents that have both a high potency and low toxicity in a myeloid disorder disease model, such as an animal or cell model. In some embodiments, the high-throughput screen measures the differentiation of HL-60 leukemic cells using a quantitative nitroblue tetrazolium (NBT) reduction assay. Screening HL-60 cells, human promyelocytic cells, is advantageous as they have been used extensively as a cell line to study myeloid differentiation. Though promyelocytic cells, HL-60 cells were derived from a patient with acute myeloblastic leukemia with maturation, FAB-M2.
This technique has also been widely exploited in HL-60 cells to analyze myelomonocytic differentiation.
The NBT screen works due to changes in the oxidoreductases during differentiation that lead to increases in rates of NBT reduction. NBT is reduced due to the production of superoxide that is catalyzed by an NADPH oxidase. […] NBT is reduced by superoxide from a soluble yellow compound to insoluble blue formazan granules whose formation can be monitored spectrophotometrically at 560 nm as the unreduced dye has minimal absorbance at this wavelength. A quantitative NBT reduction assay is ideal for this type of screen as it is simple, sensitive, quantitative, requires minimal cells, has been proven to have low well to well variability, and the amount of reduced NBT is proportional to the number of cells reducing the dye as well as the amount reduced by each cell.
To discover novel AML differentiation-inducing compounds a rapid high-throughput screen (HTS) was developed and optimized. The screen was designed to be biased to identify compounds that, unlike the majority of known differentiation-inducing agents, have both high potency and low toxicity. The screen measured the differentiation of HL-60 leukemic cells using a quantitative Nitroblue Tetrazolium (NBT) reduction assay, a test that is used extensively as a measure of functional myelomonocytic differentiation. The basis for the screen is unreduced NBT exists as a yellow soluble dye. Differentiated leukemic cells are capable of producing a respiratory burst that can reduce NBT into a blue insoluble compound that can be measured spectrophotometrically. This forward chemical genetics approach allowed the discovery of novel compounds that can act on targets not previously known to be “drugable.” As only live cells can reduce NBT, the screen is biased in identifying relatively nontoxic compounds.
To perform the screen, duplicate plates of HL-60 cells were cultured at a density of 5×10^4 cells/mL with 10 μM of each compound in 96 well plates for 5 days. To determine the relative capability for a compound to induce differentiation compared to known potent inducers, each plate destined for the NBT reduction assay included wells with 0.1% DMSO (vehicle control) and 1 μM ATRA. This approach eliminates any slight day to day variation in NBT reduction values and allows the discovery of compounds with similar or greater efficacy to ATRA. Differentiation was determined in the 96 well plates by incubating the cells with 1 mg/mL of NBT and 200 ng/mL of PMA as the stimulant for the respiratory burst for 35 minutes at 37° C. The reaction was then stopped with HCl and the formazan solubilized with DMSO. Finally, the reaction mixture was read spectrophotometrically at 560 nm in a plate reader.
The securinine and norsecurinine analogues were tested and evaluated on their abilities to affect differentiation and growth of HL-60 cells (Table 1).

Row | Structure (SMILES) | EC50 [µM]
29 | CO[C@H]1CC2=CC(=O)O[C@@]23C[C@@H]1N1CCCC[C@@H]13 [INVS-MG-97-IIB] | > 30
30 | COc1ccc(CN[C@@H]2CC3=CC(=O)O[C@@]34C[C@@H]2N2CCCC[C@@H]24)cc1 [INVS-MG-86C] | > 30
31 | C[N+]12CCCC[C@@H]1[C@]13C[C@H]2C=CC1=CC(=O)O3 (stereo partly drawn) [Sec-1] | > 30

Same assay, conditions: Homo sapiens, HL-60, read-out: HL-60, Dif50

Row | Structure (SMILES) | EC50 [µM]
32 | O=C1C=C2CC(SCC3CCCCCC3)[C@@H]3C[C@@]2(O1)[C@H]1CCCCN31 (stereo partly drawn) [Compound 70] | 10 to 15
33 | COC(OC)[C@H]1CC[C@H]2N1[C@@H]1C=CC3=CC(=O)O[C@@]32C1 [Compound 2] | 3.25 to 5
34 | O=C1C=C2CC(SCc3ccccc3)[C@@H]3C[C@@]2(O1)[C@H]1CCCCN31 (stereo partly drawn) [Compound 93] | > 30
35 | O=C1C=C2CC(SC3CCCC3)[C@@H]3C[C@@]2(O1)[C@H]1CCCCN31 (stereo partly drawn) [Compound 97] | 15 to 20
36 | O=C1C=C2CC(SCc3ccccc3O)[C@@H]3C[C@@]2(O1)[C@H]1CCCCN31 (stereo partly drawn) [Compound 94] | 15 to 20
37 | CCCCCCCSC1CC2=CC(=O)O[C@@]23C[C@@H]1N1CCCC[C@@H]13 (stereo partly drawn) [Compound 71] | 20 to 30
38 | CSC1CC2=CC(=O)O[C@@]23C[C@@H]1N1CCCC[C@@H]13 (stereo partly drawn) [Compound 96] | 10 to 15

Same assay, conditions: Homo sapiens; HL-60 cells; value bracketed between tested concentrations; read-out: HL-60, Dif50

Row | Structure (SMILES) | EC50 [µM]
39 | O=C1C=C2CC(N3CCC(F)(F)C3)[C@@H]3C[C@@]2(O1)[C@H]1CCCCN31 (stereo partly drawn) [Compound 68] | > 30
40 | O=C1C=C2CC(NC3CCCCC3)[C@@H]3C[C@@]2(O1)[C@H]1CCCCN31 (stereo partly drawn) [Compound 82] | 15 to 20
41 | Nc1ccc(C#CC2=C[C@@H]3C[C@@]4(OC(=O)C=C24)[C@H]2CCCCN32)cc1 [Compound 53] | 0.156 to 0.31
42 | CC(C)SC1CC2=CC(=O)O[C@@]23C[C@@H]1N1CCCC[C@@H]13 (stereo partly drawn) [Compound 75] | 15 to 20
43 | O=C(CCCC[C@@H]1SC[C@@H]2NC(=O)N[C@@H]21)NCCS[C@H]1CC2=CC(=O)O[C@@]23C[C@@H]1N1CCCC[C@@H]13 [Compound 78] | 10 to 15
44 | CC(C)NCCSC1CC2=CC(=O)O[C@@]23C[C@@H]1N1CCCC[C@@H]13 (stereo partly drawn) [Compound 100] | 15 to 20
45 | O=C1C=C2C[C@H](S(=O)(=O)c3ccccc3)[C@@H]3C[C@@]2(O1)[C@H]1CCCCN31 [Compound 88] | 5 to 7.5
46 | O=C1C=C2CC(SCc3cccs3)[C@@H]3C[C@@]2(O1)[C@H]1CCCCN31 (stereo partly drawn) [Compound 69] | 20 to 30
47 | CC(C)(C)OC(=O)NCCSC1CC2=CC(=O)O[C@@]23C[C@@H]1N1CCCC[C@@H]13 (stereo partly drawn) [Compound 95] | 15 to 20
48 | COc1ccc(CN[C@H]2CC3=CC(=O)O[C@@]34C[C@@H]2N2CCCC[C@@H]24)cc1 [Compound 86] | 15 to 20
49 | O=C1C=C2CC(SCC(F)(F)F)[C@@H]3C[C@@]2(O1)[C@H]1CCCCN31 (stereo partly drawn) [Compound 67] | 20 to 30
50 | O=C1C=C2CC(NC3CCCCCC3)[C@@H]3C[C@@]2(O1)[C@H]1CCCCN31 (stereo partly drawn) [Compound 83] | > 30
51 | C[N+]12CCCC[C@@H]1[C@]13C[C@H]2C=CC1=CC(=O)O3 (stereo partly drawn) [Compound 8] | > 30
52 | O=C1C=C2CC(NC3CCCC3)[C@@H]3C[C@@]2(O1)[C@H]1CCCCN31 (stereo partly drawn) [Compound 81] | 10 to 15
53 | CCCCSC1CC2=CC(=O)O[C@@]23C[C@@H]1N1CCCC[C@@H]13 (stereo partly drawn) [Compound 72] | 20 to 30
54 | O=C1C=C2CC(SC34CC5CC(CC(C5)C3)C4)[C@@H]3C[C@@]2(O1)[C@H]1CCCCN31 (stereo partly drawn) [Compound 66] | > 30
55 | CCCSC1CC2=CC(=O)O[C@@]23C[C@@H]1N1CCCC[C@@H]13 (stereo partly drawn) [Compound 74] | 15 to 20
56 | O=C1C=C2CC(n3nnc4ccccc43)[C@@H]3C[C@@]2(O1)[C@H]1CCCCN31 (stereo partly drawn) [Compound 92] | 20 to 30
57 | O=C1C=C2CC(n3cnc4ccccc43)[C@@H]3C[C@@]2(O1)[C@H]1CCCCN31 (stereo partly drawn) [Compound 91] | > 30
58 | O=C1C=C2CC(NC3CCCCCCC3)[C@@H]3C[C@@]2(O1)[C@H]1CCCCN31 (stereo partly drawn) [Compound 84] | > 30
59 | O=C1C=C2CC(NC3CC(O)C3)[C@@H]3C[C@@]2(O1)[C@H]1CCCCN31 (stereo partly drawn) [Compound 85] | 10 to 15
60 | O=C1C=C2CC(n3ccnc3)[C@@H]3C[C@@]2(O1)[C@H]1CCCCN31 (stereo partly drawn) [Compound 99] | 15 to 20

From patent US10130616B2, “Securinine and norsecurinine analogue compounds for the treatment of myeloid disorders” (Case Western Reserve University, priority 2013, dated 2018)
